Source: US6328728A, “Composition and method for enhancing electrotransport agent delivery” (Alza Corporation, priority 1997, dated 2001)

Legend:
[1] = Measurement of circular dichroism (mean residue ellipticity at 222 nm); type: physicochemical; settings: insulinotropin as agent
Excerpt: In general, the structure of a polypeptide in an aqueous buffered solution is in constant flux between portions thereof being random coil and alpha-helix configurations. For the polypeptides used in the following examples, the predominant structure is a random coil since the alpha-helix configuration is unstable in the absence of bound surfactant. According to the present invention adding surfactant to an aqueous solution of a polypeptide stabilizes the alpha-helix configuration. Circular dichroism is a measurement of the amount of the alpha-helix configured polypeptide present in the solution. Thus, circular dichroism provides an indirect measurement of the degree of binding of the surfactant to the polypeptide. (See, for example, Epand R. M., Epand R. F., Orlowski R. C., Schuleter R. J., Boni L. T. and Hui S. W., Biochemistry 22, 5074-5084 (1983); Hui, S. W., Epand R. M., Dell K. R., Epand R. F. and Orlowski R. C., Biochimica Biophysica Acta 772, 264-272 (1984); Epand R. M., Epand R. F., and Orlowski R. C., International Journal Peptide Protein Research 25 105-111; Epand R. M., Epand R. F., Orlowski R. C., Seyler J. K. and Colescott R. L., Biochemistry 25, 1964-1968; Epand R. M., Seyler J. K. and Orlowski R. C., European Journal Biochemistry 159, 125-127 (1986); Wiersema P. H., Loeb A. L. and Overbeek, J., Colloid Interface Science 22, 78-99 (1966)).
The surfactant/peptide circular dichroism (CD) spectra were obtained in a 2 mm path-length cell (110-Q-2 Model, AVIV, Lakewood, N.J.) at 32° C. The cell was initially loaded with 0.60 mL of a solution containing about 0.25 mg/mL of the peptide in 10 mM sodium chloroacetate (pH 3.5) or 10 mM sodium borate (pH 9.0). The buffers were selected to minimize the effect of the temperature on the pH of the solution and to minimize light absorption, thereby optimizing the signal-to-noise ratio (SNR). The peptide concentration was determined by spectrophotometry, with log-log correction for light scattering. The surfactant concentration was increased step-wise by titration of concentrated surfactant stock directly into the CD cell, followed by eight inversions of the cell, with the air bubble providing the mixing turbulence. After mixing, the cell was placed into the AVIV 62 CD spectrometer (AVIV, Lakewood, N.J.). In order to approximate temperature and chemical equilibrium, the sample remained in the spectrometer 5 minutes before a reading was taken. The CD spectrum was taken using a band pass of 1 nm, a data interval of 1 nm, and a data averaging time of 10 seconds. The mean residue ellipticity is the ellipticity divided by the path length in cm times the amino acid residue concentration in decimoles/cm^3. See Methods in Enzymology, Vol 130, pp 208-269, Yang et al, "Calculation of Protein Conformation from Circular Dichroism" (1986).
(§1) The measurement procedures described above were conducted on an aqueous solution of the protein insulinotropin, with TWEEN® 20 (MW=1126 g/mol) as the surfactant, with the following modifications. The insulinotropin donor solution concentration was 0.12 mg/mL. One test was run in 10 mM sodium borate at pH 9.0 and another test in 10 mM sodium chloroacetate at pH 3.5.
(§2) Fractional changes (%δ) are defined as the difference between the reading at a given surfactant concentration (Ec) minus the reading at zero surfactant (E0), the quantity divided by the difference between the reading at saturated surfactant concentration (Es) minus the reading at zero surfactant (E0), i. e. %δ=(Ec -E0)/(Es-E0).
The measurement procedures described earlier were conducted on an aqueous solution of insulinotropin as the agent, and TWEEN® 40 (molecular weight 1282 g/mol) as the surfactant with the following changes. The insulinotropin concentration was initially 0.29 mg/mL, and 0.21 mg/mL after the final TWEEN® 40 addition and the temperature was held at 32° C. Two tests were conducted at two different concentrations of TWEEN® 40. […]

[2] = Electrophoretic mobility by capillary zone electrophoresis; type: physicochemical; settings: no surfactant
Method: Since electrophoretic mobility (ie, the ability of a drug/agent to migrate in an electric field) is an important aspect of electrotransport drug delivery, the electrophoretic mobility of the drug/agent being delivered is predictive of suitability for transdermal electrotransport delivery. Electrophoretic mobility measurements were performed using a capillary zone electrophoresis instrument (model 2100 P/ACE instrument, Beckman Instruments, Inc., Palo Alto, Calif.). At acid pH values DB-WAX, DB-1, DB-17 (J&W Scientific, Folsom, Calif.) capillary columns were used either with 50 or 100 micron internal diameter column and CElect H75 (Supelco, Bellefonte, Pa.) capillary column with a 75 micron internal diameter. At alkaline pH values uncoated silica capillaries of length 57 cm with an internal diameter of 75 microns were used with an applied voltage of 20 kV. If any electroosmotic flow was present, it was detected using a neutral marker such as 0.01% benzyl alcohol (SIGMA, St. Louis, Mo.) or 1/500 mesityl oxide (Applied Biosystems, Foster City, Calif.). The optimum voltage was determined by doing an Ohm's Law test on each buffer and capillary system. The temperature of the capillary columns was set at 32° C. and a two second pressure injection was done. A UV detector was used to monitor peptide and markers at either 214 or 280 nm.
Voltage injection had to be used for the 27 cm length column. The voltage applied varied depending on the capillary length.
The following equation was used to determine electrophoretic mobility μ. [formula]
If the electroosmotic flow is detected, the following equation can be used.
μpeptide =μtotal -μneutral marker
as §1, §2
The measurement procedures described earlier were conducted in this example on an aqueous solution containing insulinotropin as the agent and dodecyl trimethyl ammonium chloride (DTAC) as the ionic surfactant with the following modifications. […]
The same measurement procedures were conducted using an aqueous solution of salmon calcitonin as the agent and the zwitterionic dodecyl sulfobetaine as the surfactant with the following modifications. The temperature was initially 32° C., the surfactant concentration was varied up to 30 mM, and the calcitonin concentration was 0.06 to 0.08 mM. Tables 7, 8, and 9 below provide the results obtained in terms of polypeptide ellipticity expressed as a function of zwitterionic surfactant concentration at pH 3.5 in 12 mM sodium chloroacetate (Table 7), 5.0 in 4 mM piperazine HCI (Table 8), and 6.5 in 15 mM sodium cacodylate (Table 9), respectively. Table 8, in addition, provides the results obtained on electrophoretic mobility and HIC retention time in a phenyl superose column at pH 5.0.

[3] = Hydrophobicity by hydrophobic interaction chromatography (HIC), phenyl Superose column (retention time, ta/tm); type: physicochemical; settings: for HIC Retention Time (Phenyl Superose Col.): no surfactant
Method: The hydrophobicity of an agent (eg, an agent such as a polypeptide or protein in solution, as well as the relative increase or decrease thereof) is determined by passing the agent-containing solution through a chromatography column filled with a particular "hydrophobic interaction" bead material and measuring either (1) the time required for the agent to elute (ie, pass through) the column or (2) the volume of liquid (ie, the same liquid used in the agent-containing sample, but with the agent removed) required to be pumped through the column in order to elute the agent. For the purposes of the present invention, the hydrophobicity of an agent is defined in terms relative to the marker compound, N-acetyl tryptophanamide (sold by Sigma Chemical, St. Louis, Mo.), which has a somewhat moderate hydrophobicity. Hydrophobicity, as that term is used herein, is measured using a 5 mm diameter glass column having a length of 5 cm (ie, column volume of 1.0 mL) and packed with cross-linked agar beads having an average particle size of 13.5 μm. Examples of suitable hydrophobic bead materials include cross-linked agar gel beads (Superose 12) having hydrophobic ligands attached to the agar via chemically stable ether linkages ((Superose 12)--O--CH2 --CHOH--CH2 --O--R) such as alkyl-Superose wherein R is --CH2 --C(CH3)3 and phenyl-Superose wherein R is phenyl, both of which are sold in pre-packaged column form by Pharmacia Biotech, Inc. of Piscataway, N.J. Immediately downstream from the column is placed a flow cell which permits continuous UV absorbance measurements of the solution flowing out of the column. Suitable flow cells and UV absorbance detectors are sold by Perkin-Elmer Corp., Applied Biosystems, Foster City, Calif. Hydrophobicity measurements are conducted at 32° C. with the same buffer that is used in the electrotransport system which is used to deliver the agent (eg, transdermally) to the patient. The buffer strength used in the hydrophobicity measurements is 10 mM ionic strength. The term "certain hydrophobicity" as used herein, means that the time required for the agent to elute from the column, relative to the time required for N-acetyl tryptophanamide to elute, is as follows:
ta /tm >0.7, and preferably ta /tm >3
ta is the time at which the peak UV absorbance value is recorded for the beneficial agent in the flow cell, less the time required to initially fill the column with the agent-containing solution (ie, dead volume retention time); and
tm is the time at which the peak UV absorbance value is recorded for the N-acetyl tryptophanamide marker in the flow cell, less the time required to initially fill the column with the marker-containing solution (ie, dead volume retention time).
The above described measurement of agent hydrophobicity is substantially independent of column size and flow rate through the column.
One method of measuring the hydrophobicity of an agent such as a polypeptide or protein is by hydrophobic interaction chromatography (HIC). The principles and conditions associated with HIC are fully described in Protein Purification: Principles, High Resolution Methods, and Applications, Janson and Ryden, Eds., pp. 207-226 (1989), the pertinent portions of which are incorporated herein by reference. This method requires passing a composition through a hydrophobic interaction column and measuring the volume of solvent required for its complete elution. The hydrophobic sites on the agent are generally attracted to hydrophobic groups, such as aryl groups, affixed to beads placed within the column. A preferred HIC column material is phenyl-superose (Pharmacia, Sweden), a cross-linked polysaccharide which has been covalently modified to have pendant hydrophobic aryl groups. These pendant groups are similar to the hydrophobic or lipophilic species in the skin layers. Thus, this hydrophobic interaction column approximates, and is a good in vitro model for, an animal's skin layer as a barrier to transport of a polypeptide or protein. […]

[4] = pH 6.5
Method: A. Preparation of Human Skin Samples
Human cadaver skin was prepared by first removing about 1 mm thick skin samples in the form of strips. The skin strips were placed in polyethylene bags, sealed and placed in a refrigerator at about 4° C. for temporary storage. Prior to use in the electrotransport cell, the skin strips were placed in one-liter beakers containing water at 60° C. for about 90 seconds with gentle stirring. Then, the skin strips were removed and placed onto the absorbent side of a piece of BENCHKOTE™ material with the dermis side down. Using flat tipped tweezers to retain the dermis, the epidermis was removed from each strip with a round-tip spatula. Each epidermis, stratum corneum side up, was transferred to a PYREX™ glass tray filled with water. Each floating epidermis was stretched essentially flat. After removal from the water 2.22 cm (7/8 in) diameter disks of each epidermis were punched out of areas having negligible surface damage. The discs were stored at 4° C. in a sealed container with water droplets to maintain their moisture.
B. Set-up of Electrotransport Cell and Composition […]
The solution concentration of the polypeptide in the donor compartment 44 was, unless otherwise specified, 1 mM. […] The polypeptide flux was determined by periodic sampling of the solution in the receptor compartment 46. […]

With `CCCCCCCCCCCC[N+](C)(C)C.[Cl-]` [DTAC, dodecyl trimethyl ammonium chloride, reference compound] the “surfactant concentration at which an ellipticity of -9000 occurs” value [1] was “about 3.0 mM”.

With “Cytochrome C: protein, molecular weight 12,400 g/mol” the “Electrophoretic Mobility” value [2] was 2.5 × 10^-4 cm^2 /V-s and the “HIC Retention Time (Phenyl Superose Col.)” value (“HIC Retention Time” below) [3] was 2.0 min.

Molecule “D-Glu-D-Tyr-D-Leu-D-Lys-D-Ata-D-Leu-D-Leu-D-Ser-D-Lys-D-Leu-NH2 [Model Decapeptide, reference compound]” has a ta /tm ([3]; 10 mM HIS buffer, pH 7.0) of 0.6, a ta /tm ([3]; HIS buffer, pH 7.2) of 0.5 and a ta /tm ([3]; pH 6.5 (10 mM histidine), no enhancer) of 0.8. The ta /tm ([3]; pH 6.5 (10 mM histidine), no enhancer, listed as decapeptide) was “about 0.8”, the ta /tm ([3]; pH 6.5, with 3 mM Tween 20) was 0.9 and the “in vitro Skin Flux” value [4] was “l.3 μg/cm^2 -hr”.

In the case of “Lysozyme: protein, molecular weight 14,315 g/mol”, the “Electrophoretic Mobility” value [2] is reported as 2.4 × 10^-4 cm^2 /V-s and the “HIC Retention Time” value [3] is reported as 24.0 min.

B1: Ribonuclease: protein, molecular weight 13,686 g/mol (protein, UniProt P61823 27-150, looked up)
Ribonuclease pancreatic: KETAAAKFERQHMDSSTSAASSSNYCNQMMKSRNLTKDRCKPVNTFVHESLADVQAVCSQKNVACKNGQTNCYQSYSTMSITDCRETGSSKYPNCAYKTTQANKHIIVACEGNPYVPVHFDASV
In the case of B1, the “Electrophoretic Mobility” value [2] is reported as 1.9 × 10^-4 cm^2 /V-s and the “HIC Retention Time” value [3] is reported as 12.1 min.
